System: six V600E BRAF melanoma cell lines
Assay: Screening of recombinant RTK ligands for ability to confer resistance to BRAFi (PLX4720) or MEKi (PD184352) (Table 4)
Assay type: cell-based, human
Parameters: ability of recombinant RTK ligand to confer resistance / ability of recombinant RTK ligand to confer resistance (screening value): scale not given here
Description: HGF is the only one that can substantially confer drug resistance to the cell lines.
The complexity of the tumor microenvironment is much greater than an in vitro co-culture system. Therefore, the inventors explored whether the activation of other RTKs could result in a similar resistance as that observed with the activation of MET. To this end, six V600E BRAF melanoma cell lines were tested for their resistance to either BRAFi (PLX4720) or MEKi (PD184352) after the addition of 22 RTK ligands that have the potential of activating almost all known RTKs. […] The activation of a selected subset of these RTKs was confirmed by western blotting and by high throughput tyrosine kinase phosphorylation profiling.

[1] = A2058, PD184352 - 1 uM, ligand 0.4 ng/ml
[2] = A2058, PD184352 - 1 uM, ligand 1.6 ng/ml
[3] = A2058, PD184352 - 1 uM, ligand 6.25 ng/ml
[4] = A2058, PD184352 - 1 uM, ligand 25 ng/ml
[5] = A2058, PD184352 - 1 uM, ligand 100 ng/ml
[6] = A2058, PLX4720 - 2 uM, ligand 0.4 ng/ml
[7] = A2058, PLX4720 - 2 uM, ligand 1.6 ng/ml
[8] = A2058, PLX4720 - 2 uM, ligand 6.25 ng/ml
[9] = A2058, PLX4720 - 2 uM, ligand 25 ng/ml
[10] = A2058, PLX4720 - 2 uM, ligand 100 ng/ml
[11] = C32, PD184352 - 1 uM, ligand 0.4 ng/ml
[12] = C32, PD184352 - 1 uM, ligand 1.6 ng/ml
[13] = C32, PD184352 - 1 uM, ligand 6.25 ng/ml
[14] = C32, PD184352 - 1 uM, ligand 25 ng/ml
[15] = C32, PD184352 - 1 uM, ligand 100 ng/ml
[16] = C32, PLX4720 - 2 uM, ligand 0.4 ng/ml
[17] = C32, PLX4720 - 2 uM, ligand 1.6 ng/ml
[18] = C32, PLX4720 - 2 uM, ligand 6.25 ng/ml
[19] = C32, PLX4720 - 2 uM, ligand 25 ng/ml
[20] = C32, PLX4720 - 2 uM, ligand 100 ng/ml
[21] = Colo 829, PD184352 - 1 uM, ligand 0.4 ng/ml
[22] = Colo 829, PD184352 - 1 uM, ligand 1.6 ng/ml
[23] = Colo 829, PD184352 - 1 uM, ligand 6.25 ng/ml
[24] = Colo 829, PD184352 - 1 uM, ligand 25 ng/ml
[25] = Colo 829, PD184352 - 1 uM, ligand 100 ng/ml
[26] = Colo 829, PLX4720 - 2 uM, ligand 0.4 ng/ml
[27] = Colo 829, PLX4720 - 2 uM, ligand 1.6 ng/ml
[28] = Colo 829, PLX4720 - 2 uM, ligand 6.25 ng/ml
[29] = Colo 829, PLX4720 - 2 uM, ligand 25 ng/ml
[30] = Colo 829, PLX4720 - 2 uM, ligand 100 ng/ml
[31] = G-361, PD184352 - 1 uM, ligand 0.4 ng/ml
[32] = G-361, PD184352 - 1 uM, ligand 1.6 ng/ml
[33] = G-361, PD184352 - 1 uM, ligand 6.25 ng/ml
[34] = G-361, PD184352 - 1 uM, ligand 25 ng/ml
[35] = G-361, PD184352 - 1 uM, ligand 100 ng/ml
[36] = G-361, PLX4720 - 2 uM, ligand 0.4 ng/ml
[37] = G-361, PLX4720 - 2 uM, ligand 1.6 ng/ml
[38] = G-361, PLX4720 - 2 uM, ligand 6.25 ng/ml
[39] = G-361, PLX4720 - 2 uM, ligand 25 ng/ml
[40] = G-361, PLX4720 - 2 uM, ligand 100 ng/ml
[41] = SK-MEL-5, PD184352 - 1 uM, ligand 0.4 ng/ml
[42] = SK-MEL-5, PD184352 - 1 uM, ligand 1.6 ng/ml
[43] = SK-MEL-5, PD184352 - 1 uM, ligand 6.25 ng/ml
[44] = SK-MEL-5, PD184352 - 1 uM, ligand 25 ng/ml
[45] = SK-MEL-5, PD184352 - 1 uM, ligand 100 ng/ml
[46] = SK-MEL-5, PLX4720 - 2 uM, ligand 0.4 ng/ml
[47] = SK-MEL-5, PLX4720 - 2 uM, ligand 1.6 ng/ml
[48] = SK-MEL-5, PLX4720 - 2 uM, ligand 6.25 ng/ml
[49] = SK-MEL-5, PLX4720 - 2 uM, ligand 25 ng/ml
[50] = SK-MEL-5, PLX4720 - 2 uM, ligand 100 ng/ml
[51] = SK-MEL-28, PD184352 - 1 uM, ligand 0.4 ng/ml
[52] = SK-MEL-28, PD184352 - 1 uM, ligand 1.6 ng/ml
[53] = SK-MEL-28, PD184352 - 1 uM, ligand 6.25 ng/ml
[54] = SK-MEL-28, PD184352 - 1 uM, ligand 25 ng/ml
[55] = SK-MEL-28, PD184352 - 1 uM, ligand 100 ng/ml
[56] = SK-MEL-28, PLX4720 - 2 uM, ligand 0.4 ng/ml
[57] = SK-MEL-28, PLX4720 - 2 uM, ligand 1.6 ng/ml
[58] = SK-MEL-28, PLX4720 - 2 uM, ligand 6.25 ng/ml
[59] = SK-MEL-28, PLX4720 - 2 uM, ligand 25 ng/ml
[60] = SK-MEL-28, PLX4720 - 2 uM, ligand 100 ng/ml

FGF1
ability of recombinant RTK ligand to confer resistance [1]: 1.04 | ability of recombinant RTK ligand to confer resistance [2]: 1.05 | ability of recombinant RTK ligand to confer resistance [3]: 1.04 | ability of recombinant RTK ligand to confer resistance [4]: 1.12 | ability of recombinant RTK ligand to confer resistance [5]: 1.19 | ability of recombinant RTK ligand to confer resistance [6]: 1.02 | ability of recombinant RTK ligand to confer resistance [7]: 1.01 | ability of recombinant RTK ligand to confer resistance [8]: 0.96 | ability of recombinant RTK ligand to confer resistance [9]: 1.05 | ability of recombinant RTK ligand to confer resistance [10]: 1.11 | ability of recombinant RTK ligand to confer resistance [11]: 1.01 | ability of recombinant RTK ligand to confer resistance [12]: 1.04 | ability of recombinant RTK ligand to confer resistance [13]: 1.03 | ability of recombinant RTK ligand to confer resistance [14]: 1.02 | ability of recombinant RTK ligand to confer resistance [15]: 0.97 | ability of recombinant RTK ligand to confer resistance [16]: 1.11 | ability of recombinant RTK ligand to confer resistance [17]: 1.10 | ability of recombinant RTK ligand to confer resistance [18]: 1.08 | ability of recombinant RTK ligand to confer resistance [19]: 0.93 | ability of recombinant RTK ligand to confer resistance [20]: 1.00 | ability of recombinant RTK ligand to confer resistance [21]: 1.02 | ability of recombinant RTK ligand to confer resistance [22]: 1.11 | ability of recombinant RTK ligand to confer resistance [23]: 1.00 | ability of recombinant RTK ligand to confer resistance [24]: 1.08 | ability of recombinant RTK ligand to confer resistance [25]: 1.12 | ability of recombinant RTK ligand to confer resistance [26]: 0.99 | ability of recombinant RTK ligand to confer resistance [27]: 1.09 | ability of recombinant RTK ligand to confer resistance [28]: 1.02 | ability of recombinant RTK ligand to confer resistance [29]: 1.07 | ability of recombinant RTK ligand to confer resistance [30]: 1.06 | ability of recombinant RTK ligand to confer resistance [31]: 0.99 | ability of recombinant RTK ligand to confer resistance [32]: 1.09 | ability of recombinant RTK ligand to confer resistance [33]: 0.99 | ability of recombinant RTK ligand to confer resistance [34]: 1.08 | ability of recombinant RTK ligand to confer resistance [35]: 1.04 | ability of recombinant RTK ligand to confer resistance [36]: 0.96 | ability of recombinant RTK ligand to confer resistance [37]: 0.95 | ability of recombinant RTK ligand to confer resistance [38]: 0.92 | ability of recombinant RTK ligand to confer resistance [39]: 0.89 | ability of recombinant RTK ligand to confer resistance [40]: 1.08 | ability of recombinant RTK ligand to confer resistance [41]: 0.98 | ability of recombinant RTK ligand to confer resistance [42]: 1.07 | ability of recombinant RTK ligand to confer resistance [43]: 1.14 | ability of recombinant RTK ligand to confer resistance [44]: 1.17 | ability of recombinant RTK ligand to confer resistance [45]: 1.36 | ability of recombinant RTK ligand to confer resistance [46]: 1.01 | ability of recombinant RTK ligand to confer resistance [47]: 1.12 | ability of recombinant RTK ligand to confer resistance [48]: 1.12 | ability of recombinant RTK ligand to confer resistance [49]: 1.09 | ability of recombinant RTK ligand to confer resistance [50]: 1.28 | ability of recombinant RTK ligand to confer resistance [51]: 1.05 | ability of recombinant RTK ligand to confer resistance [52]: 0.87 | ability of recombinant RTK ligand to confer resistance [53]: 0.90 | ability of recombinant RTK ligand to confer resistance [54]: 0.92 | ability of recombinant RTK ligand to confer resistance [55]: 1.06 | ability of recombinant RTK ligand to confer resistance [56]: 1.00 | ability of recombinant RTK ligand to confer resistance [57]: 1.02 | ability of recombinant RTK ligand to confer resistance [58]: 1.10 | ability of recombinant RTK ligand to confer resistance [59]: 0.98 | ability of recombinant RTK ligand to confer resistance [60]: 1.08

IGF-I
ability of recombinant RTK ligand to confer resistance [1]: 1.10 | ability of recombinant RTK ligand to confer resistance [2]: 1.02 | ability of recombinant RTK ligand to confer resistance [3]: 1.03 | ability of recombinant RTK ligand to confer resistance [4]: 1.08 | ability of recombinant RTK ligand to confer resistance [5]: 1.02 | ability of recombinant RTK ligand to confer resistance [6]: 1.05 | ability of recombinant RTK ligand to confer resistance [7]: 0.95 | ability of recombinant RTK ligand to confer resistance [8]: 0.97 | ability of recombinant RTK ligand to confer resistance [9]: 1.04 | ability of recombinant RTK ligand to confer resistance [10]: 0.99 | ability of recombinant RTK ligand to confer resistance [11]: 1.05 | ability of recombinant RTK ligand to confer resistance [12]: 1.04 | ability of recombinant RTK ligand to confer resistance [13]: 1.21 | ability of recombinant RTK ligand to confer resistance [14]: 1.16 | ability of recombinant RTK ligand to confer resistance [15]: 1.21 | ability of recombinant RTK ligand to confer resistance [16]: 1.08 | ability of recombinant RTK ligand to confer resistance [17]: 1.12 | ability of recombinant RTK ligand to confer resistance [18]: 1.17 | ability of recombinant RTK ligand to confer resistance [19]: 1.15 | ability of recombinant RTK ligand to confer resistance [20]: 1.07 | ability of recombinant RTK ligand to confer resistance [21]: 1.06 | ability of recombinant RTK ligand to confer resistance [22]: 0.97 | ability of recombinant RTK ligand to confer resistance [23]: 1.03 | ability of recombinant RTK ligand to confer resistance [24]: 1.01 | ability of recombinant RTK ligand to confer resistance [25]: 1.08 | ability of recombinant RTK ligand to confer resistance [26]: 1.00 | ability of recombinant RTK ligand to confer resistance [27]: 0.99 | ability of recombinant RTK ligand to confer resistance [28]: 1.06 | ability of recombinant RTK ligand to confer resistance [29]: 1.03 | ability of recombinant RTK ligand to confer resistance [30]: 1.07 | ability of recombinant RTK ligand to confer resistance [31]: 1.06 | ability of recombinant RTK ligand to confer resistance [32]: 1.00 | ability of recombinant RTK ligand to confer resistance [33]: 1.17 | ability of recombinant RTK ligand to confer resistance [34]: 0.99 | ability of recombinant RTK ligand to confer resistance [35]: 0.95 | ability of recombinant RTK ligand to confer resistance [36]: 1.03 | ability of recombinant RTK ligand to confer resistance [37]: 1.05 | ability of recombinant RTK ligand to confer resistance [38]: 1.11 | ability of recombinant RTK ligand to confer resistance [39]: 0.99 | ability of recombinant RTK ligand to confer resistance [40]: 0.87 | ability of recombinant RTK ligand to confer resistance [41]: 1.01 | ability of recombinant RTK ligand to confer resistance [42]: 1.01 | ability of recombinant RTK ligand to confer resistance [43]: 1.08 | ability of recombinant RTK ligand to confer resistance [44]: 1.06 | ability of recombinant RTK ligand to confer resistance [45]: 1.29 | ability of recombinant RTK ligand to confer resistance [46]: 1.01 | ability of recombinant RTK ligand to confer resistance [47]: 1.03 | ability of recombinant RTK ligand to confer resistance [48]: 1.19 | ability of recombinant RTK ligand to confer resistance [49]: 1.25 | ability of recombinant RTK ligand to confer resistance [50]: 1.12 | ability of recombinant RTK ligand to confer resistance [51]: 1.10 | ability of recombinant RTK ligand to confer resistance [52]: 1.06 | ability of recombinant RTK ligand to confer resistance [53]: 0.98 | ability of recombinant RTK ligand to confer resistance [54]: 1.06 | ability of recombinant RTK ligand to confer resistance [55]: 1.12 | ability of recombinant RTK ligand to confer resistance [56]: 1.24 | ability of recombinant RTK ligand to confer resistance [57]: 1.08 | ability of recombinant RTK ligand to confer resistance [58]: 1.09 | ability of recombinant RTK ligand to confer resistance [59]: 1.02 | ability of recombinant RTK ligand to confer resistance [60]: 1.01
